Measurements: PubChem BioAssay AID1963973 (Molecular Pharmacology Branch, DTP, NCI, 2024)

Test system: 883617-216-R-J1-PDC tumor spheroids, viability
Experiment: Anticancer human tumor 883617-216-R-J1-PDC patient-derived bladder carcinoma cell line growth inhibition [PI3K]
Conditions: spheroids with HUVEC and MSC; for IC50: curve of first compound; for viability, T/C: stronger effect = lower value
Method in brief: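 Targeted small molecules plus PI3K inhibitors, half-log dose series from Cmax (default top 10 microM), were applied to heterotypic spheroids of cancer cells with HUVEC and MSCs. Viability indicated growth inhibition.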

[1] = second compound 0.0316 µM, first compound 0.000316 µM
[2] = second compound 0.0316 µM, first compound 0.001 µM
[3] = second compound 0.0316 µM, first compound 0.00316 µM
[4] = second compound 0.0316 µM, first compound 0.01 µM
[5] = second compound 0.0316 µM, first compound 0.0316 µM
[6] = second compound 0.0316 µM, first compound 0.1 µM
[7] = second compound 0.1 µM, first compound 0.000316 µM
[8] = second compound 0.1 µM, first compound 0.001 µM
[9] = second compound 0.1 µM, first compound 0.00316 µM
[10] = second compound 0.1 µM, first compound 0.01 µM
[11] = second compound 0.1 µM, first compound 0.0316 µM
[12] = second compound 0.1 µM, first compound 0.1 µM
[13] = second compound 0.316 µM, first compound 0.000316 µM
[14] = second compound 0.316 µM, first compound 0.001 µM
[15] = second compound 0.316 µM, first compound 0.00316 µM
[16] = second compound 0.316 µM, first compound 0.01 µM
[17] = second compound 0.316 µM, first compound 0.0316 µM
[18] = second compound 0.316 µM, first compound 0.1 µM
[19] = second compound 1 µM, first compound 0.000316 µM
[20] = second compound 1 µM, first compound 0.001 µM
[21] = second compound 1 µM, first compound 0.00316 µM
[22] = second compound 1 µM, first compound 0.01 µM
[23] = second compound 1 µM, first compound 0.0316 µM
[24] = second compound 1 µM, first compound 0.1 µM
[25] = second compound 3.16 µM, first compound 0.000316 µM
[26] = second compound 3.16 µM, first compound 0.001 µM
[27] = second compound 3.16 µM, first compound 0.00316 µM
[28] = second compound 3.16 µM, first compound 0.01 µM
[29] = second compound 3.16 µM, first compound 0.0316 µM
[30] = second compound 3.16 µM, first compound 0.1 µM
[31] = second compound 10 µM, first compound 0.000316 µM
[32] = second compound 10 µM, first compound 0.001 µM
[33] = second compound 10 µM, first compound 0.00316 µM
[34] = second compound 10 µM, first compound 0.01 µM
[35] = second compound 10 µM, first compound 0.0316 µM
[36] = second compound 10 µM, first compound 0.1 µM
[37] = second compound 0.0316 µM, first compound 0.316 µM
[38] = second compound 0.0316 µM, first compound 1 µM
[39] = second compound 0.0316 µM, first compound 3.16 µM
[40] = second compound 0.0316 µM, first compound 10 µM
[41] = second compound 0.1 µM, first compound 0.316 µM
[42] = second compound 0.1 µM, first compound 1 µM
[43] = second compound 0.1 µM, first compound 3.16 µM
[44] = second compound 0.1 µM, first compound 10 µM
[45] = second compound 0.316 µM, first compound 0.316 µM
[46] = second compound 0.316 µM, first compound 1 µM
[47] = second compound 0.316 µM, first compound 3.16 µM
[48] = second compound 0.316 µM, first compound 10 µM
[49] = second compound 1 µM, first compound 0.316 µM
[50] = second compound 1 µM, first compound 1 µM
[51] = second compound 1 µM, first compound 3.16 µM
[52] = second compound 1 µM, first compound 10 µM
[53] = second compound 3.16 µM, first compound 0.316 µM
[54] = second compound 3.16 µM, first compound 1 µM
[55] = second compound 3.16 µM, first compound 3.16 µM
[56] = second compound 3.16 µM, first compound 10 µM
[57] = second compound 10 µM, first compound 0.316 µM
[58] = second compound 10 µM, first compound 1 µM
[59] = second compound 10 µM, first compound 3.16 µM
[60] = second compound 10 µM, first compound 10 µM
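Note: spheroids exposed to agents for 7 days before the viability read.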

With `CC(=O)c1c(C)c2cnc(Nc3ccc(N4CCNCC4)cn3)nc2n(C2CCCC2)c1=O` + Cc1nc(NC(=O)N2CCCC2C(N)=O)sc1-c1ccnc(C(C)(C)C(F)(F)F)c1 the IC50 (second compound 0.0316 µM) was > 100 nM, the IC50 (second compound 0.1 µM) was 23.7 nM and the IC50 (second compound 0.316 µM) was < 0.316 nM. For the same molecule, the IC50 (second compound 1 µM) was < 0.316 nM, the IC50 (second compound 3.16 µM) was < 0.316 nM and the IC50 (second compound 10 µM) was < 0.316 nM. The viability, T/C [1] was 81%, the viability, T/C [2] was 70.3% and the viability, T/C [3] was 82.5%. For the same molecule, the viability, T/C [4] was 68.1%, the viability, T/C [5] was 58.7% and the viability, T/C [6] was 50.3%. The viability, T/C [7] was 65.4%, the viability, T/C [8] was 63.5% and the viability, T/C [9] was 62.8%. The viability, T/C [10] was 57.8%, the viability, T/C [11] was 47.4% and the viability, T/C [12] was 37.6%. For the same molecule, the viability, T/C [13] was 47.7%, the viability, T/C [14] was 43.8% and the viability, T/C [15] was 33%. For the same molecule, the viability, T/C [16] was 43.2%, the viability, T/C [17] was 34.5% and the viability, T/C [18] was 26.3%. It also gave a viability, T/C [19] of 26.7%, a viability, T/C [20] of 31.5% and a viability, T/C [21] of 25.7%. It also gave a viability, T/C [22] of 23.3%, a viability, T/C [23] of 21.1% and a viability, T/C [24] of 17.2%. The viability, T/C [25] was 12.9%, the viability, T/C [26] was 11.8% and the viability, T/C [27] was 13.6%. For the same molecule, the viability, T/C [28] was 14.4%, the viability, T/C [29] was 11.7% and the viability, T/C [30] was 11.6%. For the same molecule, the viability, T/C [31] was 8.2%, the viability, T/C [32] was 6.55% and the viability, T/C [33] was 6.27%. The viability, T/C [34] was 7.44%, the viability, T/C [35] was 6.18% and the viability, T/C [36] was 5.86%.

For `CC(C)n1nc(-c2ccc3oc(N)nc3c2)c2c(N)ncnc21` + Cc1nc(NC(=O)N2CCCC2C(N)=O)sc1-c1ccnc(C(C)(C)C(F)(F)F)c1, the IC50 (second compound 0.0316 µM) was 18.3 nM, the IC50 (second compound 0.1 µM) was 12.6 nM and the IC50 (second compound 0.316 µM) was 0.358 nM. For the same molecule, the IC50 (second compound 1 µM) was < 0.316 nM, the IC50 (second compound 3.16 µM) was < 0.316 nM and the IC50 (second compound 10 µM) was < 0.316 nM. For the same molecule, the viability, T/C [1] was 79.6%, the viability, T/C [2] was 72.5% and the viability, T/C [3] was 69.5%. The viability, T/C [4] was 60.3%, the viability, T/C [5] was 41.1% and the viability, T/C [6] was 18.4%. The viability, T/C [7] was 61.9%, the viability, T/C [8] was 66.6% and the viability, T/C [9] was 62.1%. The viability, T/C [10] was 52.9%, the viability, T/C [11] was 35.5% and the viability, T/C [12] was 15.7%. For the same molecule, the viability, T/C [13] was 47.2%, the viability, T/C [14] was 54% and the viability, T/C [15] was 45.2%. For the same molecule, the viability, T/C [16] was 40.6%, the viability, T/C [17] was 25.9% and the viability, T/C [18] was 12.7%. For the same molecule, the viability, T/C [19] was 29.1%, the viability, T/C [20] was 24.7% and the viability, T/C [21] was 38.1%. The viability, T/C [22] was 22.4%, the viability, T/C [23] was 16.4% and the viability, T/C [24] was 9.37%. For the same molecule, the viability, T/C [25] was 16%, the viability, T/C [26] was 15.7% and the viability, T/C [27] was 12.4%. For the same molecule, the viability, T/C [28] was 17.6%, the viability, T/C [29] was 9.92% and the viability, T/C [30] was 4.95%. For the same molecule, the viability, T/C [31] was 7.13%, the viability, T/C [32] was 7.02% and the viability, T/C [33] was 8.33%. It also gave a viability, T/C [34] of 6.52%, a viability, T/C [35] of 5.75% and a viability, T/C [36] of 2.9%.

For `CC1(C)CCC(CN2CCN(c3ccc(C(=O)NS(=O)(=O)c4ccc(NCC5CCOCC5)c([N+](=O)[O-])c4)c(Oc4cnc5[nH]ccc5c4)c3)CC2)=C(c2ccc(Cl)cc2)C1` + Cc1nc(NC(=O)N2CCCC2C(N)=O)sc1-c1ccnc(C(C)(C)C(F)(F)F)c1, the IC50 (second compound 0.0316 µM) was 5050 nM, the IC50 (second compound 0.1 µM) was 4460 nM and the IC50 (second compound 0.316 µM) was < 31.6 nM. The IC50 (second compound 1 µM) was < 31.6 nM, the IC50 (second compound 3.16 µM) was < 31.6 nM and the IC50 (second compound 10 µM) was < 31.6 nM. The viability, T/C [5] was 85.3%, the viability, T/C [6] was 84% and the viability, T/C [37] was 87.7%. It also gave a viability, T/C [38] of 81.2%, a viability, T/C [39] of 81.8% and a viability, T/C [40] of 3.63%. For the same molecule, the viability, T/C [11] was 66.6%, the viability, T/C [12] was 66.1% and the viability, T/C [41] was 79.5%. The viability, T/C [42] was 67.3%, the viability, T/C [43] was 71.3% and the viability, T/C [44] was 3.02%. It also gave a viability, T/C [17] of 47.4%, a viability, T/C [18] of 45% and a viability, T/C [45] of 51.2%. For the same molecule, the viability, T/C [46] was 52.6%, the viability, T/C [47] was 44.5% and the viability, T/C [48] was 4.5%. For the same molecule, the viability, T/C [23] was 41.3%, the viability, T/C [24] was 28.9% and the viability, T/C [49] was 29.4%. The viability, T/C [50] was 33.2%, the viability, T/C [51] was 30.7% and the viability, T/C [52] was 3.44%. The viability, T/C [29] was 14.8%, the viability, T/C [30] was 14.4% and the viability, T/C [53] was 17.1%. The viability, T/C [54] was 14.3%, the viability, T/C [55] was 14.7% and the viability, T/C [56] was 2.57%. It also gave a viability, T/C [35] of 7.93%, a viability, T/C [36] of 12.9% and a viability, T/C [57] of 7.45%. For the same molecule, the viability, T/C [58] was 8.13%, the viability, T/C [59] was 7.77% and the viability, T/C [60] was 1.74%.

`CCCS(=O)(=O)Nc1ccc(F)c(C(=O)c2c[nH]c3ncc(-c4ccc(Cl)cc4)cc23)c1F` + Cc1nc(NC(=O)N2CCCC2C(N)=O)sc1-c1ccnc(C(C)(C)C(F)(F)F)c1 was tested, and the IC50 (second compound 0.0316 µM) was 4360 nM, the IC50 (second compound 0.1 µM) was 4380 nM and the IC50 (second compound 0.316 µM) was 858 nM. For the same molecule, the IC50 (second compound 1 µM) was < 31.6 nM, the IC50 (second compound 3.16 µM) was < 31.6 nM and the IC50 (second compound 10 µM) was < 31.6 nM. For the same molecule, the viability, T/C [5] was 75.6%, the viability, T/C [6] was 83.1% and the viability, T/C [37] was 88.1%. The viability, T/C [38] was 92.9%, the viability, T/C [39] was 66.4% and the viability, T/C [40] was 7.45%. For the same molecule, the viability, T/C [11] was 84.8%, the viability, T/C [12] was 78.3% and the viability, T/C [41] was 65%. For the same molecule, the viability, T/C [42] was 74%, the viability, T/C [43] was 66% and the viability, T/C [44] was 9.98%. It also gave a viability, T/C [17] of 53.6%, a viability, T/C [18] of 55.1% and a viability, T/C [45] of 51.4%. It also gave a viability, T/C [46] of 49.2%, a viability, T/C [47] of 39.8% and a viability, T/C [48] of 10.4%. For the same molecule, the viability, T/C [23] was 33.3%, the viability, T/C [24] was 26.5% and the viability, T/C [49] was 34.3%. For the same molecule, the viability, T/C [50] was 39.8%, the viability, T/C [51] was 35.9% and the viability, T/C [52] was 7.76%. For the same molecule, the viability, T/C [29] was 16.6%, the viability, T/C [30] was 16.3% and the viability, T/C [53] was 17.8%. For the same molecule, the viability, T/C [54] was 19.3%, the viability, T/C [55] was 16.6% and the viability, T/C [56] was 7.14%. For the same molecule, the viability, T/C [35] was 7.33%, the viability, T/C [36] was 7.82% and the viability, T/C [57] was 7.92%. For the same molecule, the viability, T/C [58] was 10%, the viability, T/C [59] was 9.86% and the viability, T/C [60] was 4.55%.
